Experimental data: patent US11858899B2, “Complexation of pirfenidone with polyphenolic calixarene or resorcin[4]arenes” (University of Cincinnati, priority 2021, dated 2024)
Converted amounts (≈) assume the structure as drawn. “Also recorded” adds a separate entry of the source. Read-outs that look alike come from different tables or passages of the source.

Assays:
[1] = test system: klebsiella pneumoniae (G -ve) bacteria; assay: Zone of inhibition (ZI) paper disc test, antibacterial/antioxidant activity; format: cell-based; conditions: for Inference: radical scavenger: from ZI change with H2O2 / pyrogallol; for Zone of inhibition (ZI), 5 uL of (Compound + H2O2): premixed 0.01M compound + 0.88M H2O2, 1:1; for Zone of inhibition (ZI), 5 uL of (Compound + Pyrogallol): premixed 0.01M compound + 1M Pyrogallol, 1:1; for Zone of inhibition (ZI), 5 uL of 0.01M Compound: pure compound on paper disc;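 for Inference: radical scavenger: smaller zone than oxidant alone means antioxidant and larger means oxidant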
Protocol: (§1) Tests were conducted to check the antioxidant/antibacterial activity of macrocycle and host-guest compounds. 5 uL of 0.01M compound, 5 uL (premixed, 0.01M compound+1M Pyrogallol, 1:1) and 5 uL (premixed, 0.01M compound+0.88M H2O2, 1:1) were added on paper discs placed on plates. 5 uL of 1M pyrogallol, 5 uL of 0.88M H2O2 were used as control (oxidants). In the following tables, Decrease/Increase means wrt pure H2O2 or pyrogallol. […] Zone=mm of zone width around disk. Decrease/Increase wrt pure H2O2 or pyrogallol.

[2] = test system: Pseudomonas aeruginosa (G-ve) bacteria; assay: as above; format: cell-based; conditions: for Inference: radical scavenger: from ZI change with H2O2 / pyrogallol; for Zone of inhibition (ZI), 5 uL of (Compound + H2O2): premixed 0.01M compound + 0.88M H2O2, 1:1; for Zone of inhibition (ZI), 5 uL of (Compound + Pyrogallol): premixed 0.01M compound + 1M Pyrogallol, 1:1; for Zone of inhibition (ZI), 5 uL of 0.01M Compound: pure compound on paper disc;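 for Inference: radical scavenger: smaller zone than oxidant alone means antioxidant and larger means oxidant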
Protocol: as §1

E. Coli (G-ve) bacteria = assay: as above; format: cell-based; conditions: for Inference: radical scavenger: from ZI change with H2O2 / pyrogallol; for Zone of inhibition (ZI), 5 uL of (Compound + H2O2): premixed 0.01M compound + 0.88M H2O2, 1:1; for Zone of inhibition (ZI), 5 uL of (Compound + Pyrogallol): premixed 0.01M compound + 1M Pyrogallol, 1:1; for Zone of inhibition (ZI), 5 uL of 0.01M Compound: pure compound on paper disc;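 for Inference: radical scavenger: smaller zone than oxidant alone means antioxidant and larger means oxidant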
Protocol: as §1

[3] = test system: Staphylococcus aureus (G+ve) bacteria; assay: as above; format: cell-based; conditions: for Inference: radical scavenger: from ZI change with H2O2 / pyrogallol; for Zone of inhibition (ZI), 5 uL of (Compound + H2O2): premixed 0.01M compound + 0.88M H2O2, 1:1, decrease vs pure H2O2 = antioxidant; for Zone of inhibition (ZI), 5 uL of (Compound + Pyrogallol): premixed 0.01M compound + 1M Pyrogallol, 1:1, decrease vs pure pyrogallol = antioxidant; for Zone of inhibition (ZI), 5 uL of 0.01M Compound: pure compound on paper disc, zone width around disk; for Inference: Anti-bacterial potential: from ZI of pure compound
Protocol: as §1, with “disk.” for “disk. Decrease/Increase wrt pure H2O2 or pyrogallol.”

P. aeruginosa (BAMF) = assay: Broth serial dilution MIC / growth inhibition in 96-well plate; format: cell-based, Pseudomonas aeruginosa; conditions: for MIC: test range 128-2 ug/mL, LB medium; for GI (growth inhibition): at the MIC concentration
Protocol: (§2) 3 mg/ml stock solutions of PFD, RsC1, RsC1-PFD (1:1 complex), RsC4, and RsC4-PFD (1:1 complex) were prepared in DMSO (bcoz host soluble in DMSO solution). From the stock, a working solution 4× (highest conc. for each compound in plate) was prepared in LB media. 50 uL of LB media was first added in each well (96 well plate). Then a 4× solution of the respective compound was added to the first row (A4-A12) except A1-A3 (Positive control/bacterial innoculum). Then, the 4× was serially diluted up to well G for all 3 compounds. (A-G). Then, a 50 uL aliquot of the 100-fold diluted bacterial inoculum was added in each test well. Individual test concentrations (in triplicate wells in a 96-well plate) for the given compounds were achieved by serial dilution by using LB medium. Total volume in each well is 100 uL. The final-test concentration range for the individual test compounds for C. acnes, S. aureus and P. aeruginosa are as follows: PFD, RsC1, RsC4, RsC1-PFD complex and RsC4-PFD complex (128-2 ug/mL).

C. acnes = assay: as above; format: cell-based, Cutibacterium acnes; conditions: for MIC: test range 128-2 ug/mL, LB medium; for GI (growth inhibition): at the MIC concentration
Protocol: 3 mg/ml stock solutions of RsC1, PFD and RsC1-PFD were prepared in DMSO (bcoz host soluble in DMSO solution). From the stock, a working solution 4× (highest conc. for each compound in plate) was prepared in LB media. 50 uL of LB media were first added in each well (96 well plate). Then a 4× solution of each respective compound was added to the first row (A4-A12) except A1-A3 (Positive control/bacterial innoculum). Then the 4× was serially diluted up to well G for all 3 compounds. (A-G). Then, a 50 uL aliquot of the 100-fold diluted bacterial inoculum was added in each test well. Individual test concentrations (in triplicate wells in a 96-well plate) for the given compounds were achieved by serial dilution by using LB medium. Total volume in each well was 100 uL. The final-test concentration range for the individual test compounds for C. acne were as follows: Macrocycle, PFD and RsC1-PFD complex (128-2 ug/mL). The results are shown in FIG. 10, which is a bar plot of absorbance (at 600 nm) at various test compound concentrations, showing the percent inhibition of pathogen growth in the presence of decreasing concentrations of the test compounds using a twofold dilution series.
as §2, with “RsC4-PFD” for “RsC1, RsC1-PFD”, “complex),” for “complex), RsC4,”, “RsC4” for “RsC4-PFD (1:1 complex)”, “acne” for “acnes, S. aureus and P. aeruginosa are”, “Macrocycle, PFD” for “PFD, RsC1, RsC4, RsC1-PFD complex”
as §2

S. aureus (MU50) = assay: as above; format: cell-based, Staphylococcus aureus; conditions: for MIC: test range 128-2 ug/mL, LB medium; for GI (growth inhibition): at the MIC concentration
Protocol: as §2

| Compound | Inference: radical scavenger [1] | Zone of inhibition (ZI), 5 uL of (Compound + H2O2) [1] | Zone of inhibition (ZI), 5 uL of (Compound + Pyrogallol) [1] | Zone of inhibition (ZI), 5 uL of 0.01M Compound [1] | Inference: radical scavenger [2] | Zone of inhibition (ZI), 5 uL of (Compound + H2O2) [2] | Zone of inhibition (ZI), 5 uL of (Compound + Pyrogallol) [2] | Zone of inhibition (ZI), 5 uL of 0.01M Compound [2] | Inference: radical scavenger (E. Coli (G-ve) bacteria) | Zone of inhibition (ZI), 5 uL of (Compound + H2O2) (E. Coli (G-ve) bacteria) | Zone of inhibition (ZI), 5 uL of (Compound + Pyrogallol) (E. Coli (G-ve) bacteria) | Zone of inhibition (ZI), 5 uL of 0.01M Compound (E. Coli (G-ve) bacteria) | Inference: radical scavenger [3] | Zone of inhibition (ZI), 5 uL of (Compound + H2O2) [3] | Zone of inhibition (ZI), 5 uL of (Compound + Pyrogallol) [3] | Zone of inhibition (ZI), 5 uL of 0.01M Compound [3] | GI (growth inhibition) (P. aeruginosa (BAMF)) [%] | GI (growth inhibition) (C. acnes) [%] | GI (growth inhibition) (S. aureus (MU50)) [%] | further results |
| --- | --- | --- | --- | --- | --- | --- | --- | --- | --- | --- | --- | --- | --- | --- | --- | --- | --- | --- | --- | --- |
| OO [H2O2] |  |  |  |  |  |  |  |  |  |  |  |  |  |  |  |  |  |  |  | Zone of inhibition (ZI), 5 uL of 0.88M H2O2 ([1]; oxidant control alone): ZI (3 mm; Zone of inhibition (ZI), 5 uL of 0.88M H2O2 ([2]; oxidant control alone): ZI (2.7 mm; Zone of inhibition (ZI), 5 uL of 0.88M H2O2 (E. Coli (G-ve) bacteria; oxidant control alone): ZI (2.9 mm; Zone of inhibition (ZI), 5 uL of 0.88M H2O2 ([3]; oxidant control alone): (4.6 mm) |
| CCCCCCC1c2cc(c(O)c(O)c2O)C(CCCCCC)c2cc(c(O)c(O)c2O)C(CCCCCC)c2cc(c(O)c(O)c2O)C(CCCCCC)c2cc1c(O)c(O)c2O (stereo not shown) [P6] | Moderate | (2 mm) | No ZI | No ZI | Low radical | (2.2 mm) | pyrogallol (1.2 mm | No ZI | Moderate | (1.7 mm) | No ZI | No ZI | Low radical | (3.8 mm) | (2 mm) | No ZI |  |  |  |  |
| Cc1ccc(=O)n(-c2ccccc2)c1 [PFD, 5-methyl-1-phenylpyridin-2-one] | Moderate | (2.2 mm) | No ZI | No ZI | no free radical scavenging effect | (2.7 mm) | pyrogallol (1.2 mm | No ZI | Moderate OH | (1.7 mm) | No ZI | No ZI | low to high free radical scavenging effect; also recorded: Moderate | slightly (3.8 mm | No ZI | No ZI | 35 | 98 | 45 | MIC (P. aeruginosa (BAMF); Pseudomonas aeruginosa, read-out: MIC): 128 µg/mL (≈ 691 µM); MIC (C. acnes; Cutibacterium acnes, read-out: MIC): 128 µg/mL (≈ 691 µM); MIC (S. aureus (MU50); Staphylococcus aureus, read-out: MIC): 128 µg/mL (≈ 691 µM) |
| CC1c2cc(c(O)cc2O)C(C)c2cc(c(O)cc2O)C(C)c2cc(c(O)cc2O)C(C)c2cc1c(O)cc2O (stereo not shown) [RsC1, C-methylresorcin[4]arene] | Moderate | (2.4 mm) | No ZI | No ZI |  | (2.1 mm) | pyrogallol (1.2 mm | No ZI | Moderate | (1.9 mm) | No ZI | No ZI | potential/Low | (4.2 mm) | (2.5 mm) | (1.2 mm) | 47 | 96 | 98 | MIC (P. aeruginosa (BAMF)): 64 µg/mL (≈ 118 µM); Inference: radical scavenger ([2]; listed as R1): low antioxidant activity; also recorded: Low radical; percent inhibition of pathogen growth (C. acnes; at 16 μg/mL, absorbance at 600 nm (FIG. 10)): 35%; MIC (C. acnes): 64 µg/mL (≈ 118 µM); MIC (S. aureus (MU50)): 16 µg/mL (≈ 29.4 µM); Inference: Anti-bacterial potential ([3]; listed as R1): slight anti-bacterial activity |
| CCCCC1c2cc(c(O)cc2O)C(CCCC)c2cc(c(O)cc2O)C(CCCC)c2cc(c(O)cc2O)C(CCCC)c2cc1c(O)cc2O (stereo not shown) [RsC4, C-butylresorcin[4]arene] | High OH | No ZI | No ZI | No ZI | Low radical | (2.1 mm) | (1.4 mm) | No ZI | Moderate | (1.7 mm) | No ZI | No ZI | Low radical | (3.6 mm) | (2.3 mm) | No ZI | 56 | 98 | 52 | MIC (P. aeruginosa (BAMF)): 64 µg/mL (≈ 89.8 µM); MIC (C. acnes): 128 µg/mL (≈ 180 µM); MIC (S. aureus (MU50)): 128 µg/mL (≈ 180 µM); Inference: Anti-bacterial potential [3]: none |
| OCCN1CCN(Cc2ccc(O)c3ncccc23)CC1 [VK] | Moderate | (2.3 mm) | No ZI | No ZI | Moderate | (2.2 mm) | (0.7 mm) | No ZI | High radical | No ZI | No ZI | No ZI | Low radical | (3.7 mm) | (2.3 mm) | No ZI |  |  |  |  |
| Oc1cccc(O)c1O [pyrogallol, Pyrogallol] |  |  |  |  |  |  |  |  |  |  |  |  |  |  |  |  |  |  |  | Zone of inhibition (ZI), 5 uL of 1M pyrogallol ([1]; oxidant control alone): ZI (0.9 mm; Zone of inhibition (ZI), 5 uL of 1M pyrogallol ([2]; oxidant control alone): ZI (1.1 mm; Zone of inhibition (ZI), 5 uL of 1M pyrogallol (E. Coli (G-ve) bacteria; oxidant control alone): ZI (0.9 mm; Zone of inhibition (ZI), 5 uL of 1M pyrogallol ([3]; oxidant control alone): (3.3 mm) |
